Results from PMC11024197 (Nature Communications, 2024).
Like-named read-outs stand apart in the source and are kept apart here.

Key:
[1] = molecular target: T1, PEX14 NTD (Homo sapiens, UniProt O75381); design: method as in values quoted from other papers; conditions: cited from earlier work
T1 construct: PEX14 NTD (1-104), expressed in E. coli with His6-SUMO tag, cleaved

[2] = molecular target: T1, PEX14 NTD; conditions: SD, n = 3; read-out: KD (µM) (Suppl. Table 2); KD (nM) (Suppl. Table 4)
Protocol: Isothermal titration calorimetry (ITC) measurements were performed as triplicates at 25 °C using a MicroCal PEAQ-ITC (Malvern Instruments Ltd. U.K) calorimeter. Buffer conditions were 20 mM Tris pH 7.5, 50 mM NaCl. For all titrations a titrant dilution control experiment was performed and subtracted before the data were fitted to a one-site binding model using the Malvern Analysis software.
PEX13 SH3 at a concentration of 35-48 µM was titrated with purchased 15mer peptides containing (di)aromatic penta peptides from PEX5 or PEX5 1-76 (W0) at concentration of 0.7-0.6 mM and PEX13 350-403 (FxxxF) at a concentration of 0.9-1 mM. […] The concentration of PEX14 was corrected with the fit, since it cannot be accurate measured at 280 nm owing to the extinction coefficient of only 1490.

T1 sequence (O75381 1-104): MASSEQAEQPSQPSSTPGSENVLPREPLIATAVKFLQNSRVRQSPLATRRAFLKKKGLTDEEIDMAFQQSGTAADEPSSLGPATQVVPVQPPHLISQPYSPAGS

Row | Substance | Kd [1] [µM] | Kd [2] [µM]
1 | PEX19 FxxxF motif (66-77 SQEKFFQELFDS in Fig. 3b; exact ligand of cited work not printed) | 9.2 | 
2 | PEX13 residues 261-403 [PEX13 SH3-CTR] |  | 5.4
3 | PEX5 1-76 (contains […]) [PEX5 W0] |  | 0.0551
